Experiment in all cases: GsX GloSensor assay with Gsα/q11
What all share (type): cell-based
Conditions in all cases: 16.7 μM AA92593, COS-1 cells

The subject of assay [1] is mouse melanopsin S269^6.52A mutant.
Assay [2] has as its system jumping spider rhodopsin-1 I189^ECL2W. The text has this: (§1) We next tested the effect of AA92593 on jumping spider rhodopsin-1, a Gq-coupled visual opsin but not melanopsin (see Figs. 2, S2, and S3) ([41]). Similar to non-mammalian-type and invertebrate melanopsins, jumping spider rhodopsin-1 was not sensitive to AA92593 as assessed using the GsX GloSensor assay (Fig. 7L). […] The introduction of I189^ECL2W/Y207^5.42F impaired the light-dependent cAMP responses even in the absence of AA92593 (Fig. S11). Taken together, the non-melanopsin Gq-coupled opsin cannot be functionally converted to an AA92593-sensitive type by site-directed mutagenesis, in contrast to non-mammalian-type and invertebrate melanopsins.
(§2) For GloSensor assay, opsins, GloSensor assay sensor (coded by pGlo-22F), and NanoBiT-tagged G proteins were transiently expressed in COS-1 cells (kindly provided from Dr David Farrens, Oregon Health and Science University) using PEI as described previously ([24], [52]). […] For GFP-fluorescence microscopy, a 35-mm cell culture dish (IWAKI) was transfected with 2 μg melanopsin-GFP plasmid and 8 μg PEI in 400 μl Opti-mem and 1.2 ml D-MEM. […]
(§3) The transfected COS-1 cells were incubated at 37 °C, 5% CO2 for 2 days, and the medium was aspirated and exchanged with 50 μl of HBSS (145 mM NaCl, 10 mM D-glucose, 5 mM KCl, 1 mM MgCl2, 1.7 mM CaCl2, 1.5 mM NaHCO3, 10 mM Hepes, pH 7.4), containing 33.3, 20, 10, 2, 0.2, 0.02, 0.002, or 0 μM AA92593, 0.5% dimetyl sulfoxide (DMSO), and 4% (vol/vol) GloSensor cAMP reagent stock solution. […] Then, the cells were incubated at room temperature for 1 h, and luminescence changes were monitored. After incubation of the cells with AA92593, luminescence measurement was interrupted, the plate was ejected, and the cells were added with 50 μl of HBSS containing 0.2 μM 9-cis-retinal. […] Luminescence was measured using GM-2000 or GM-3510 microplate reader (Promega). Luminescence level of each well was measured every 30 s with integration time of 0.6 to 0.9 s. […] After illumination, luminescence measurement was resumed. The measured luminescence levels were normalized to the level at the starting point (time = 0 min). […]

Assay [3] deals with jumping spider rhodopsin-1 M94^2.61F/T188^ECL2S/L269^6.52S.
Excerpt: as §1, §2, §3

In assay [4] the test system is jumping spider rhodopsin-1 Y207^5.42F.
Excerpt: as §1, §2, §3

The structures appear in SMILES notation.

`COc1ccc(S(=O)(=O)N2CCCCC2)cc1C` [AA92593]: the “reduction of the antagonistic effect of AA92593 vs WT” value in assay [1] is reported as ~25%. The “change in sensitivity to AA92593 vs WT” value in assay [2], in assay [3] and in assay [4] was “did not increase” each time.

Source of the values: article PMC12051620, “Molecular basis underlying the specificity of an antagonist AA92593 for mammalian melanopsins” (The Journal of Biological Chemistry, 2025).
